In ChEMBL document CHEMBL5625183, “Discovery of a novel dual-target inhibitor of CDK12 and PARP1 that induces synthetic lethality for treatment of triple-negative breast cancer” (Eur J Med Chem, 2023):
Activity calls are given as the source filed them. The calls are words filed in the database; no cut-off is given here.

Legend:
[1] = Toxicity in BALB/c mouse xenografted with human MDA-MB-231 cells assessed as morphological changes in lung at 20 to 80 mg/kg, ip administered once daily for 16 days by H and E staining based analysis; format: organism-based; conditions: in vivo, 384 h, dose 20-80 mg/kg, time 16 day
[2] = Toxicity in BALB/c mouse xenografted with human MDA-MB-231 cells assessed as morphological changes in heart at 20 to 80 mg/kg, ip administered once daily for 16 days by H and E staining based analysis; format: organism-based; conditions: in vivo, 384 h, dose 20-80 mg/kg, time 16 day
[3] = Tmax in Sprague-Dawley rat at 10 mg/kg, po measured upto 24 hrs by LC-MS/MS analysis; format: ADME, organism-based; conditions: in vivo
MDA-MB-436 [4] = assay: Induction of cell cycle arrest in human MDA-MB-436 cells assessed as accumulation of cells at G1 phase at 20 uM measured after 24 hrs by PI staining based cytometry analysis (reference value: 72.04%); format: functional
[5] = Tmax in Sprague-Dawley rat at 1 mg/kg, iv measured upto 24 hrs by LC-MS/MS analysis; format: ADME, organism-based; conditions: in vivo
MDA-MB-436 [6] = assay: Induction of cell cycle arrest in human MDA-MB-436 cells assessed as accumulation of cells at G2 phase at 5 uM measured after 24 hrs by PI staining based cytometry analysis (reference value: 2.54%); format: functional
MDA-MB-231 [7] = assay: Induction of cell cycle arrest in human MDA-MB-231 cells assessed as accumulation of cells at G2 phase at 10 uM measured after 24 hrs by PI staining based cytometry analysis (reference value: 8.44 %); format: functional
[8] = Cmax in Sprague-Dawley rat at 10 mg/kg, po measured upto 24 hrs by LC-MS/MS analysis; format: ADME, organism-based; conditions: in vivo
[9] = AUC (0 to t) in Sprague-Dawley rat at 10 mg/kg, po measured upto 24 hrs by LC-MS/MS analysis; format: ADME, organism-based; conditions: in vivo
MDA-MB-468 = assay: […] DNA repair in human MDA-MB-468 cells assessed as […] formation at 10 uM incubated for 24 hrs by confocal laser scanning microscopic analysis; format: functional, cell-based
MDA-MB-231 [10] = assay: Induction of apoptosis in human MDA-MB-231 cells assessed as upregulation of cleaved-caspase 3 expression incubated for 24 hrs; format: functional, cell-based; conditions: dose 5-20 µM
MDA-MB-436 [11] = assay: Downregulation of Pol II CTD at ser2 residue expression in human MDA-MB-436 cells incubated for 24 hrs; format: functional, cell-based; conditions: dose 5-20 µM
[12] = AUC (0 to infinity) in Sprague-Dawley rat at 1 mg/kg, iv measured upto 24 hrs by LC-MS/MS analysis; format: ADME, organism-based; conditions: in vivo
[13] = biological target: T1, Cyclin-dependent kinase 5 (Homo sapiens, UniProt Q00535); assay: Inhibition of CDK5 (unknown origin) at 1 uM relative to control
Target sequence in this assay (Q00535 whole entry, looked up): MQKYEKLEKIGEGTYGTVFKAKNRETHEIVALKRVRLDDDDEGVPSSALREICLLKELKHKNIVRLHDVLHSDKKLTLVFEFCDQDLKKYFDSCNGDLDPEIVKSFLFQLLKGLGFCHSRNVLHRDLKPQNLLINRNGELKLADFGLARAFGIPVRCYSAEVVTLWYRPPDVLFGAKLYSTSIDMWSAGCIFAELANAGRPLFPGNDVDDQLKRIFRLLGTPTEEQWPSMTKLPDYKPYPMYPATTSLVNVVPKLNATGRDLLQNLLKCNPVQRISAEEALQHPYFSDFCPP

[14] = biological target: Cyclin-dependent kinase 12 (Homo sapiens, UniProt Q9NYV4); assay: Inhibition of CDK12 (unknown origin) at 20 uM in presence of ATP by kinase-glo plus luminescent assay relative to control
[15] = biological target: T1, Cyclin-dependent kinase 5; assay: Inhibition of CDK5 (unknown origin)
Target sequence in this assay (Q00535 whole entry): as the sequence (Q00535 whole entry, looked up) above

Sequence of Cyclin-dependent kinase 12 (Q9NYV4 whole entry, looked up): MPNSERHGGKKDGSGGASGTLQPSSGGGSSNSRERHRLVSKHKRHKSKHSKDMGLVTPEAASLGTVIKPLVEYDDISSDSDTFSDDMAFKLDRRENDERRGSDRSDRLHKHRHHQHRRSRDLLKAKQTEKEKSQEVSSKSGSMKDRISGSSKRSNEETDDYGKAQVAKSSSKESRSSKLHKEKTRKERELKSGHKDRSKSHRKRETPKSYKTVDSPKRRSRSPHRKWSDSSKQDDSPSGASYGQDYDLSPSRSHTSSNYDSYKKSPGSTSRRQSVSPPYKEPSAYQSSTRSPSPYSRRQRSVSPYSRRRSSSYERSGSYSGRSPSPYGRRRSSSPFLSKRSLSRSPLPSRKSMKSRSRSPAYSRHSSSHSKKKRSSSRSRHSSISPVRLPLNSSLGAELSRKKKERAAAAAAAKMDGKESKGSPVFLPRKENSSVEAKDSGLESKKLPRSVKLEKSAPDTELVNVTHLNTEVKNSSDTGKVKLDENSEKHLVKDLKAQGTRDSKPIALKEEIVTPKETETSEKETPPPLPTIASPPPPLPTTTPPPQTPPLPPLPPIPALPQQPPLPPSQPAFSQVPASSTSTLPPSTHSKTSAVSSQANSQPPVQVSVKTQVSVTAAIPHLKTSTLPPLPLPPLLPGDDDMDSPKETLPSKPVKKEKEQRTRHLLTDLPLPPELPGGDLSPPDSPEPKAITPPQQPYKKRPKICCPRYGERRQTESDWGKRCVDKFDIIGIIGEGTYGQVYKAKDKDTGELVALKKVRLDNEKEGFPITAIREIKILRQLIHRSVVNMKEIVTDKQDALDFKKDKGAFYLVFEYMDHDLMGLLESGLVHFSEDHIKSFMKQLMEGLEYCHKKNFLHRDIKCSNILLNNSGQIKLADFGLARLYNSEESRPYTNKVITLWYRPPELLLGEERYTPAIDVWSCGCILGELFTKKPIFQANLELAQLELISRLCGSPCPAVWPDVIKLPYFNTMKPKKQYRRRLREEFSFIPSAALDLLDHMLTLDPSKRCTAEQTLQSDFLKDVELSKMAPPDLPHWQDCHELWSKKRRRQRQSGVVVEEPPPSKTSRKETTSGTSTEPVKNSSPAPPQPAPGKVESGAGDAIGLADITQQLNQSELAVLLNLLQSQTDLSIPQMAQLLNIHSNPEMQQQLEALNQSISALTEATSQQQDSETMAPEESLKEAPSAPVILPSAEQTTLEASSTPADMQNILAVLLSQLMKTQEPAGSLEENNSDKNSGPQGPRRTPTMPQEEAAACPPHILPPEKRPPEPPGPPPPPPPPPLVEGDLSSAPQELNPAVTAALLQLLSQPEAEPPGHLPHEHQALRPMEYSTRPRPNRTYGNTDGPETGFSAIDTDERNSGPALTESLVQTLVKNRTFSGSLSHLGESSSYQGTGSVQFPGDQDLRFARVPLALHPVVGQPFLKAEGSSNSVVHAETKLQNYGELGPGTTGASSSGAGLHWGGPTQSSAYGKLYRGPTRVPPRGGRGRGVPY

Tmax [3]: 94.8 min
Tmax [5]: 4.8 min
Cmax [8]: 12.2 ng/mL
AUC(0-t) at 24 h [9]: 60.6 ng·h/mL
AUC(0-inf) [12]: 1340 ng·h/mL
inhibition [13]: > 60%
inhibition [14]: Active
IC50 [15]: 747 nM
SMILES: NC(=O)c1cccc2[nH]c(NC(=O)c3cccc(C(=O)N4CCC(Nc5ncc(I)cn5)CC4)c3)nc12
Activity [1]: Non-Toxic
Activity [2]: Non-Toxic
Activity (MDA-MB-436 [4]): 63.76%
Activity (MDA-MB-436 [6]): 4.39%
Activity (MDA-MB-231 [7]): 20.35%
Activity (MDA-MB-468): Active
Activity (MDA-MB-231 [10]): Dose-Dependent Effect
Activity (MDA-MB-436 [11]): Dose-Dependent Effect
